Read-outs that look alike come from different tables or passages of the source.
Experiments:
[1] = molecular target: T1, human enzyme NAMPT (full length) (Homo sapiens, UniProt P43490); assay: NMN fluorescence biochemical assay (stimulation of NMN synthesis by NAMPT); conditions: for EC50: concentration giving half-maximal activation, read-out: Enzymatic EC50; for Enzymatic Emax: fold change of maximal activation compared to DMSO
T1 construct: human enzyme NAMPT (full length)
In short: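 Full-length human NAMPT (100 nM) was preincubated 15 min at 37 °C with compound in 50 mM Tris-HCl pH 7.5, 10 mM MgCl2, 2 mM DTT, then reacted 1 h at 37 °C with 50 μM NAM, 100 μM PRPP, 4 mM ATP (stated solution concentrations). NMN was derivatised with acetophenone/KOH then formic acid and read at Ex/Em 382/445 nm; EC50 and Emax (fold over DMSO) reported.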

[2] = test system: endogenous NAMPT in U2OS cells; assay: Cellular NAD+ modulation assay (NAD/NADH-Glo, U2OS cells); assay type: cell-based; conditions: Homo sapiens; for maximal fold induction: read-out: Cellular Emax
Experimental: Certain compounds described herein were also assayed for their ability to stimulate the endogenous NAMPT in a native cellular environment in a cellular NAD^+ modulation assay. U2OS cells were grown in McCoy's 5A medium with 10% fetal bovine serum, in a humidified incubator with an atmosphere of 95% air and 5% CO2 at 37° C. The assays were initiated by plating 30 μL of U2OS cells in a culture medium with 10% fetal bovine serum, at a density of 3000 cells per well in a Corning® 384-well White/Clear Bottom Polystyrene Microplate. The plates were incubated in 37T incubators for a period of 16 hours. Test compounds with a series of concentrations in DMSO were added to the plates in a volume of 150 nL using Echo Liquid handlers. The plates are then incubated for 24 hours. The medium was removed from the wells, then 10 μL PBS was added to each well. To each well of cells in 10 μL of PBS, 10 μL of base solution with 1% DTAB was added. The plate was briefly mixed on a plate shaker to ensure homogeneity and cell lysis (5 mins). 10p L of 0.4N HCl was added per well. The plate was coved, and all samples were incubated for 15 minutes at 60° C. Then the plate was equilibrated for 10 minutes at room temperature. 10 μL of 0.5M Trizma® base was added to each well of acid-treated cells to neutralize the acid. Finally, 30 μL of NAD/NADH-Glo™ Detection Reagent was added. The plate was gently shaken to mix the samples. The plate was incubated for 40 minutes at room temperature. Luminescence was recorded using a luminometer. The potency measurements for the test compounds were quantified and represented as EC50 (concentration of a compound that gives half-maximal activation) and Emax (fold change of a compound's maximal activation compared to DMSO).

[3] = NMN fluorescence assay, purified human NAMPT 100 nM
[4] = 24 hours incubation, cellular NAD+
[5] = NMN synthesis by purified human NAMPT (100 nM)
[6] = 24 hours incubation with compound

T1 sequence (P43490 whole entry): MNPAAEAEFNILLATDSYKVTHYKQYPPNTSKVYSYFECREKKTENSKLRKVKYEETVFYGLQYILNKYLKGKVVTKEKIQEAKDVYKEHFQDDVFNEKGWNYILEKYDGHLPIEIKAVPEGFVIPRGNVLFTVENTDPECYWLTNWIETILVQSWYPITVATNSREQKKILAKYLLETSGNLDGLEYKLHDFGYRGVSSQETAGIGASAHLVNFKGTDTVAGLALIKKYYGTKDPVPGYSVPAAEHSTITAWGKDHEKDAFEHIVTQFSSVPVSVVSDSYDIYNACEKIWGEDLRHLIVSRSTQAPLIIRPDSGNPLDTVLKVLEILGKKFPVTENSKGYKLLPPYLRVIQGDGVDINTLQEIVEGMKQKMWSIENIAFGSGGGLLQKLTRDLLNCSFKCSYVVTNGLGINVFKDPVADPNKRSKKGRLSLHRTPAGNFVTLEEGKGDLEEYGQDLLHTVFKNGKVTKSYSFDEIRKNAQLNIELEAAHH

| SMILES | EC50 [1, 3] [nM] | Enzymatic Emax [1] | EC50 [2, 4] [nM] | EC50 [1, 5] [nM] | EC50 [2, 6] [nM] | maximal fold induction [2, 4] | maximal fold induction [2, 6] |
| --- | --- | --- | --- | --- | --- | --- | --- |
| [2H]C([2H])(c1c(Cl)cnn1C)C1c2ccccc2C(C)(C)N1CC1CC2(CNC(=O)O2)C1 (centres unmarked) [Compound 616, 2-((3-((4-chloro-1-methyl-1H-pyrazol-5-yl)methyl-d2)-1,1-dimethylisoindolin-2-yl)methyl)-5-oxa-7-azaspiro[3.4]octan-6-one] | 500 to 5000 | A (A>3) | < 500 |  |  | 1.2 to 1.5 |  |
| Cn1ncc(Cl)c1CC1c2ccccc2S(=O)(=O)N1CC1CC2(CNC(=O)O2)C1 (centres unmarked) [Compound 540, 2-((3-((4-chloro-1-methyl-1H-pyrazol-5-yl)methyl)-1,1-dioxidobenzo[d]isothiazol-2(3H)-yl)methyl)-5-oxa-7-azaspiro[3.4]octan-6-one] | < 500 | B (3≥B>2) | < 500 |  |  | > 1.5 |  |
| Cn1nc(CN2CCOCC2)c(Cl)c1CC1c2ccccc2C(=O)N1CC1CC2(CNC(=O)O2)C1 (centres unmarked) [Compound 522, 2-((1-((4-chloro-1-methyl-3-(morpholinomethyl)-1H-pyrazol-5-yl)methyl)-3-oxoisoindolin-2-yl)methyl)-5-oxa-7-azaspiro[3.4]octan-6-one] | 500 to 5000 | B (3≥B>2) | 500 to 5000 |  |  | > 1.5 |  |
| CCCn1c2ccccc2c(=O)n1Cc1ccc(O)cc1 [Compound 25, 2-(4-hydroxybenzyl)-1-propyl-1,2-dihydro-3H-indazol-3-one] |  | A (A>3) |  | ≥ 5000 | 5000 to 50000 |  | > 1.5 |
| O=C1c2ncccc2CN1Cc1ccc(O)cc1 [Compound 40, 6-(4-hydroxybenzyl)-5,6-dihydro-7H-pyrrolo[3,4-b]pyridin-7-one] |  | B (3≥B>2) |  | ≥ 5000 | 5000 to 50000 |  | 1.2 to 1.5 |
| Cn1ncc(Cl)c1CC1c2ccccc2C(=O)N1Cc1c[nH]c(=O)s1 (centres unmarked) [Compound 592, 5-((1-((4-chloro-1-methyl-1H-pyrazol-5-yl)methyl)-3-oxoisoindolin-2-yl)methyl)thiazol-2(3H)-one] | < 500 | A (A>3) | < 500 |  |  | > 1.5 |  |
| COc1ccc2c(c1)C(=O)N(Cc1ccc3[nH]nnc3c1)C2Cc1c(Cl)cnn1C (centres unmarked) [Compound 414, 2-((1H-benzo[d][1,2,3]triazol-5-yl)methyl)-3-((4-chloro-1-methyl-1H-pyrazol-5-yl)methyl)-6-methoxyisoindolin-1-one] | 500 to 5000 | A (A>3) | < 500 |  |  | > 1.5 |  |
| N#Cc1ccnc(C#N)c1CC1c2ccccc2C(=O)N1CC1CC2(CNC(=O)O2)C1 (centres unmarked) [Compound 446, 3-((3-oxo-2-((6-oxo-5-oxa-7-azaspiro[3.4]octan-2-yl)methyl)isoindolin-1-yl)methyl)pyridine-2,4-dicarbonitrile] | < 500 | B (3≥B>2) | < 500 |  |  | > 1.5 |  |
| Cn1ncc(Cl)c1CC1c2cc(Cl)ccc2C(=O)N1CC1CC2(CNC(=O)O2)C1 (centres unmarked) [Compound 474, 2-((5-chloro-3-((4-chloro-1-methyl-1H-pyrazol-5-yl)methyl)-1-oxoisoindolin-2-yl)methyl)-5-oxa-7-azaspiro[3.4]octan-6-one] | 500 to 5000 | B (3≥B>2) | < 500 |  |  | > 1.5 |  |
| Cn1ncc(Cl)c1CC1c2ccccc2C(C)(C)N1CC1CC2(CNC(=O)O2)C1 (centres unmarked) [Compound 565, 2-((3-((4-chloro-1-methyl-1H-pyrazol-5-yl)methyl)-1,1-dimethylisoindolin-2-yl)methyl)-5-oxa-7-azaspiro[3.4]octan-6-one] | < 500 | A (A>3) | < 500 |  |  | > 1.5 |  |
| CC1c2cc(C3CC3)ccc2C(=O)N1Cc1ccc2[nH]c(=O)oc2c1 (centres unmarked) [Compound 125, 6-((5-cyclopropyl-3-methyl-1-oxoisoindolin-2-yl)methyl)benzo[d]oxazol-2(3H)-one] |  | A (A>3) |  | ≥ 5000 | 500 to 5000 |  | > 1.5 |
| N#Cc1cncc(Cl)c1CC1c2ccccc2C(=O)N1Cc1ccc2[nH]nnc2c1 (centres unmarked) [Compound 278, 4-((2-((1H-benzo[d][1,2,3]triazol-5-yl)methyl)-3-oxoisoindolin-1-yl)methyl)-5-chloronicotinonitrile] |  | A (A>3) |  | < 500 | < 500 |  | > 1.5 |
| Cn1nc(Cl)c(CC2c3ccccc3C(=O)N2Cc2ccc3[nH]nnc3c2)n1 (centres unmarked) [Compound 335, 2-((1H-benzo[d][1,2,3]triazol-5-yl)methyl)-3-((5-chloro-2-methyl-2H-1,2,3-triazol-4-yl)methyl)isoindolin-1-one] | 500 to 5000 | A (A>3) | < 500 |  |  | > 1.5 |  |
| Cn1cnc(Cl)c1CC1c2ccccc2C(=O)N1CC1CC2(CNC(=O)O2)C1 (centres unmarked) [Compound 468, 2-((1-((4-chloro-1-methyl-1H-imidazol-5-yl)methyl)-3-oxoisoindolin-2-yl)methyl)-5-oxa-7-azaspiro[3.4]octan-6-one] | 500 to 5000 | B (3≥B>2) | 500 to 5000 |  |  | > 1.5 |  |
| Cn1ncc(Cl)c1CC1c2ccc(Cl)cc2C(=O)N1Cc1ccc2[nH]nnc2c1 (centres unmarked) [Compound 343, 2-((1H-benzo[d][1,2,3]triazol-5-yl)methyl)-6-chloro-3-((4-chloro-1-methyl-1H-pyrazol-5-yl)methyl)isoindolin-1-one] | < 500 | A (A>3) | < 500 |  |  | > 1.5 |  |

Second part, led by results:

| EC50 [1, 3] [nM] | Enzymatic Emax [1] | EC50 [2, 4] [nM] | EC50 [1, 5] [nM] | EC50 [2, 6] [nM] | SMILES | maximal fold induction [2, 4] | maximal fold induction [2, 6] |
| --- | --- | --- | --- | --- | --- | --- | --- |
| < 500 | B (3≥B>2) | 5000 to 50000 |  |  | O=C1c2ccccc2C(Cc2ncccc2Br)N1Cc1cc(F)c2[nH]nnc2c1 (centres unmarked) [Compound 329, 3-((3-bromopyridin-2-yl)methyl)-2-((7-fluoro-1H-benzo[d][1,2,3]triazol-5-yl)methyl) isoindolin-1-one] | > 1.5 |  |
|  | A (A>3) |  | ≥ 5000 | 5000 to 50000 | O=C1c2ccccc2CN1Cc1ccc2[nH]c(=O)oc2c1 [Compound 33, 6-((1-oxoisoindolin-2-yl)methyl)benzo[d]oxazol-2(3H)-one] |  | 1.2 to 1.5 |
|  | A (A>3) |  | 500 to 5000 | 500 to 5000 | O=C1c2ccccc2C(Cc2ccccc2)N1Cc1ccc2[nH]c(=O)oc2c1 (centres unmarked) [Compound 106, 6-((1-benzyl-3-oxoisoindolin-2-yl)methyl)benzo[d]oxazol-2(3H)-one] |  | 1.2 to 1.5 |
|  | B (3≥B>2) |  | ≥ 5000 | 5000 to 50000 | O=C1c2ccccc2C(c2ccccc2)N1Cc1ccc2[nH]c(=O)oc2c1 (centres unmarked) [Compound 67, 6-((1-oxo-3-phenylisoindolin-2-yl)methyl)benzo[d]oxazol-2(3H)-one] |  | 1.2 to 1.5 |
|  | B (3≥B>2) |  | 500 to 5000 | 500 to 5000 | N#CCc1ccccc1CC1c2ccccc2C(=O)N1Cc1ccc2[nH]c(=O)oc2c1 (centres unmarked) [Compound 173, 2-(2-((3-oxo-2-((2-oxo-2,3-dihydrobenzo[d]oxazol-6-yl)methyl)isoindolin-1-yl)methyl)phenyl)acetonitrile] |  | > 1.5 |
|  | A (A>3) |  | < 500 | 500 to 5000 | O=C1c2ccccc2C(Cc2ccccc2C(F)(F)F)N1Cc1ccc2[nH]c(=O)oc2c1 (centres unmarked) [Compound 134, 6-((1-oxo-3-(2-(trifluoromethyl)benzyl)isoindolin-2-yl)methyl)benzo[d]oxazol-2(3H)-one] |  | > 1.5 |
|  | A (A>3) |  | < 500 | < 500 | O=C1c2ccccc2C(Cc2nccc(F)c2Br)N1Cc1ccc2[nH]c(=O)oc2c1 (centres unmarked) [Compound 211, 6-((1-((3-bromo-4-fluoropyridin-2-yl)methyl)-3-oxoisoindolin-2-yl)methyl)benzo[d]oxazol-2(3H)-one] |  | > 1.5 |
|  | A (A>3) |  | < 500 | < 500 | O=C1c2ccc(C3CC3)cc2C(Cc2ncccc2Br)N1Cc1ccc2[nH]c(=O)oc2c1 (centres unmarked) [Compound 209, 6-((3-((3-bromopyridin-2-yl)methyl)-5-cyclopropyl-1-oxoisoindolin-2-yl)methyl)benzo[d]oxazol-2(3H)-one] |  | > 1.5 |

Source: patent US20260078130A1, “NAMPT MODULATORS, PREPARATIONS, AND USES THEREOF” (SIRONAX LTD., priority 2022, published 2026)
